Source: US20220233512A1, “INHIBITING AN IMMUNE RESPONSE MEDIATED BY ONE OR MORE OF TLR2, RAGE, CCR5, CXCR4 AND CD4” (priority 2020, published 2022)

Molecular target: T1, mu opiate receptor (MOR) (Rattus norvegicus, UniProt P33535)
T1 construct: from tissue; host or cells: striatum (membrane preparation)
Assay: MOR agonist activity using [35S]GTPgS binding assay in striatal membranes
Assay type: biochemical
Description: To assess the mu opiate receptor (MOR) agonist activity of positive compounds from the FLNA screening, compounds were tested in a [^35S]GTPgS binding assay using striatal membranes. […] This assay measures a functional consequence of receptor occupancy at one of the earliest receptor-mediated events. The assay permits for traditional pharmacological parameters of potency, efficacy and antagonist affinity, with the advantage that agonist measures are not subjected to amplification or other modulation that may occur when analyzing parameters further downstream of the receptor.
Thus, striatal tissue was homogenized in 10 volumes of ice cold 25 mM HEPES buffer, pH 7.4, which contained 1 mM EGTA, 100 mM sucrose, 50 mg/ml leupeptin, 0.04 mM PMSF, 2 mg/ml soybean trypsin inhibitor and 0.2% 2-mercaptoethanol. The homogenates were centrifuged at 800×g for 5 minutes and the supernatants were centrifuged at 49,000×g for 20 minutes. The resulting pellets were suspended in 10 volume of reaction buffer, which contained 25 mM HEPES, pH 7.5, 100 mM NaCl, 50 mg/ml leupeptin, 2 mg/ml soybean trypsin inhibitor, 0.04 mM PMSF and 0.02% […].
The resultant striatal membrane preparation (200 mg) was admixed and maintained (incubated) at 30° C. for 5 minutes in reaction buffer as above that additionally contained 1 mM MgCl2 and 0.5 nM [^35S]GTPgS (0.1 mCi/assay, PerkinElmer Life and Analytical Sciences) in a total volume of 250 ml and continued for 5 minutes in the absence or presence of 0.1-10 mM of an assayed compound of interest. The reaction was terminated by dilution with 750 ml of ice-cold reaction buffer that contained 20 mM MgCl2 and 1 mM EGTA and immediate centrifugation at 16,000×g for 5 minutes.
The resulting pellet was solubilized by sonicating for 10 seconds in 0.5 ml of immunoprecipitation buffer containing 0.5% digitonin, 0.2% sodium cholate and 0.5% NP-40. Normal rabbit serum (1 ml) was added to 1 ml of lysate and incubated at 25° C. for 30 minutes. Nonspecific immune complexes were removed by incubation with 25 ml of protein A/G-conjugated agarose beads at 25° C. for 30 minutes followed by centrifugation at 5,000×g at 4° C. for 5 minutes. The supernatant was divided and separately incubated at 25° C. for 30 minutes with antibodies raised against Gao proteins (1:1,000 dilutions).
The immunocomplexes so formed were collected by incubation at 25° C. for 30 minutes with 40 ml of agarose-conjugated protein A/G beads and centrifugation at 5,000×g at 4° C. for 5 minutes. The pellet was washed and suspended in buffer containing 50 mM Tris-HCl, pH 8.0, and 1% NP-40. The radioactivity in the suspension was determined by liquid scintillation spectrometry. […] DAMGO (1 or 10 mM) was used as a positive control.

[1] = 0.1 μM compound as agonist, Series C-1 table
[2] = 1 μM compound as agonist, Series C-1 table
[3] = 0.1 μM compound as agonist, Series C-2 table
[4] = 1 μM compound as agonist, Series C-2 table

T1 sequence (P33535 whole entry): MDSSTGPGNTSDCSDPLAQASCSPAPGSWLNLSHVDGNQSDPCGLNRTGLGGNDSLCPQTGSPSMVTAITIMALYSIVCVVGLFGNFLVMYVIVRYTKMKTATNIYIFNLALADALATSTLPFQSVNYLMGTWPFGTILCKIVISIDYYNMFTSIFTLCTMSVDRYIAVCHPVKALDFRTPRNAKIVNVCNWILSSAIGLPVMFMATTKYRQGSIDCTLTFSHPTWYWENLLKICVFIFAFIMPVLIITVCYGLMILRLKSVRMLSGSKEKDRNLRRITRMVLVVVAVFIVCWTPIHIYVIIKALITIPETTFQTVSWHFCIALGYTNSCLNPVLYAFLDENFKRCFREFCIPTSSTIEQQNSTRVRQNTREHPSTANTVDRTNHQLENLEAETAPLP

| Compound | MOR agonist activity ([35S]GTPgS binding to Gao) [1] | MOR agonist activity ([35S]GTPgS binding to Gao) (1 μM + BFNA, Series C-1 table) | MOR agonist activity ([35S]GTPgS binding to Gao) [2] | MOR agonist activity ([35S]GTPgS binding to Gao) [3] | MOR agonist activity ([35S]GTPgS binding to Gao) (1 μM + BFNA, Series C-2 table) | MOR agonist activity ([35S]GTPgS binding to Gao) [4] |
| --- | --- | --- | --- | --- | --- | --- |
| O=S(=O)(c1ccc(Br)cc1C(F)(F)F)N1CCC2(CC1)OCCN2S(=O)(=O)c1ccc(Br)cc1C(F)(F)F [Compound C0068] | 107.2% | 165.9% | 263.1% |  |  |  |
| CC(=O)c1ccc(S(=O)(=O)N2C(Cc3c[nH]cn3)C(=O)NC23CCNCC3)cc1 (stereo not drawn) [Compound C0119M] |  |  |  | 105.7% | 35.1% | 167.8% |
| COC(=O)c1ccc(S(=O)(=O)N2CCC3(CC2)OCCN3S(=O)(=O)c2ccc(C(=O)OC)cc2)cc1 [Compound C0028] | 93.9% | 78.4% | 132.4% |  |  |  |
| CC(=O)c1ccc(S(=O)(=O)N2CCOC23CCN(CC2CC2)CC3)cc1 [Compound C0095M] |  |  |  | 189.1% | 107.7% | 224.6% |
| CCc1ccc(S(=O)(=O)N2CCOC23CCN(CC2CC2)CC3)cc1 [Compound C0135M] |  |  |  | 161.3% | 113.3% | 310.1% |
| O=S(=O)(c1ccc(-c2ccccc2)cc1)N1CCC2(CC1)OCCN2S(=O)(=O)c1ccc(-c2ccccc2)cc1 [Compound C0010] | 136.5% | 89.1% | 307.0% |  |  |  |
| COc1ccc(S(=O)(=O)N2CCOC23CCN(C(=O)OC(C)(C)C)CC3)cc1 [Compound C0043] |  |  |  | 175.4% | 83.3% | 242.6% |
| COc1ccc(S(=O)(=O)N2CCSC23CCNCC3)cc1 [S-C0027] |  |  |  | 156.2% | 56.2% | 286.8% |
| O=C(c1ccc([N+](=O)[O-])cc1)N1CCC2(CC1)OCCN2S(=O)(=O)c1ccc([N+](=O)[O-])cc1 [Compound C0033] | 134.5% | 76.6% | 186.4% |  |  |  |
| CC(=O)c1ccc(S(=O)(=O)N2CCC3(CC2)NC(=O)C(Cc2cnc[nH]2)N3S(=O)(=O)c2ccc(C(C)=O)cc2)cc1 (stereo not drawn) [Compound C0084M] | 163.1% | 133.2% | 255.5% |  |  |  |
| O=S(=O)(c1ccc(Br)cc1)N1CCC2(CC1)OCCN2S(=O)(=O)c1ccc(Br)cc1 [Compound C0025] | 235.7% | 80.2% | 320.7% |  |  |  |
| CC(=O)c1ccc(S(=O)(=O)N2CCOC23CCN(C)CC3)cc1 [Compound C0093M] |  |  |  | 140.0% | 44.0% | 211.8% |
| CCCCN1CCC2(CC1)OCCN2S(=O)(=O)c1ccc(OC)cc1 [Compound C0102M] |  |  |  | 131.8% | 150.4% | 272.0% |
| CC(=O)c1ccc(S(=O)(=O)N2CC(CN(C)C)OC23CCNCC3)cc1 (stereo not drawn) [Compound C0118M] |  |  |  | 166.2% | 79.2% | 261.5% |
| CC(C)c1ccc(S(=O)(=O)N2CCC3(CC2)OCCN3S(=O)(=O)c2ccc(C(C)C)cc2)cc1 [Compound C0007] | 79.1% | 10.9% | 195.0% |  |  |  |
| O=C1CN(Cc2ccccc2)C2(CCNCC2)N1 [Compound C0115M] |  |  |  | 177.2% | 118.4% | 226.8% |

| Compound | MOR agonist activity ([35S]GTPgS binding to Gao) [1] | MOR agonist activity ([35S]GTPgS binding to Gao) (1 μM + BFNA, Series C-1 table) | MOR agonist activity ([35S]GTPgS binding to Gao) [2] | MOR agonist activity ([35S]GTPgS binding to Gao) [3] | MOR agonist activity ([35S]GTPgS binding to Gao) (1 μM + BFNA, Series C-2 table) | MOR agonist activity ([35S]GTPgS binding to Gao) [4] |
| --- | --- | --- | --- | --- | --- | --- |
| O=S(=O)(c1ccc(C(F)(F)F)cc1Br)N1CCC2(CC1)OCCN2S(=O)(=O)c1ccc(C(F)(F)F)cc1Br [Compound C0071] | 276.3% | 177.1% | 355.3% |  |  |  |
| O=[N+]([O-])c1ccc(S(=O)(=O)N2CCC3(CC2)NCCCO3)cc1 [Compound C0045] |  |  |  | 149.2% | 105.3% | 238.8% |
| CC(=O)N1CCSC12CCN(S(=O)(=O)c1ccc([N+](=O)[O-])cc1)CC2 [Compound C0050] |  |  |  | 110.3% | 59.0% | 127.6% |
| NS(=O)(=O)c1ccc(S(=O)(=O)N2CCC3(CC2)OCCN3S(=O)(=O)c2ccc(S(N)(=O)=O)cc2)cc1 [Compound C0034] | 103.6% | 80.1% | 167.9% |  |  |  |
| CC(=O)c1ccc(C(=O)N2CCOC23CCN(S(=O)(=O)c2ccc(C(C)=O)cc2)CC3)cc1 [Compound C0053] | 104.0% | 93.1% | 157.2% |  |  |  |
| O=S(=O)(c1ccc2ccccc2c1)N1CCC2(CC1)OCCN2S(=O)(=O)c1ccc2ccccc2c1 [Compound C0140M] | 126.1% | 83.0% | 215.4% |  |  |  |
| CC(=O)c1ccc(S(=O)(=O)N2CCC3(CC2)NC(=O)CO3)cc1 [Compound C0087M] |  |  |  | 262.8% | 142.5% | 329.6% |
| CCCCc1ccc(S(=O)(=O)N2CCC3(CC2)OCCN3S(=O)(=O)c2ccc(CCCC)cc2)cc1 [Compound C0030] | 150.3% | 95.0% | 226.8% |  |  |  |
| CC(=O)c1ccc(S(=O)(=O)N2CC(CN(C)C)OC23CCN(CC2CC2)CC3)cc1 (stereo not drawn) [Compound C0128M] |  |  |  | 197.8% | 63.9% | 286.0% |
| CS(=O)(=O)c1ccc(S(=O)(=O)N2CCC3(CC2)OCCN3S(=O)(=O)c2ccc(S(C)(=O)=O)cc2)cc1 [Compound C0009] | 146.3% | 26.4% | 256.2% |  |  |  |
| COc1ccc(C(=O)N2CCOC23CCN(S(=O)(=O)c2ccc(OC)cc2)CC3)cc1 [Compound C0019] | 104.4% | 52.8% | 176.6% |  |  |  |
| O=C1CN(Cc2ccccc2)C2(CCN(C3CCCCC3)CC2)N1 [C0137M P7] |  |  |  | 180.8% | 55.8% | 193.8% |
| CC(=O)c1ccc(S(=O)(=O)N2CC(CN(C)C)OC23CCN(C)CC3)cc1 (stereo not drawn) [Compound C0108M] |  |  |  | 205.6% | 76.9% | 258.5% |
| COc1ccc(S(=O)(=O)N2CCOC23CCN(C(C)C)CC3)cc1 [Compound C0133M] |  |  |  | 139.4% | 72.4% | 214.8% |
| COc1ccc(S(=O)(=O)N2CCOC23CCCNC3)cc1 (stereo not drawn) [Compound C0145M-3] |  |  |  | 193.0% | 87.0% | 289.2% |
| O=C(c1ccc([N+](=O)[O-])cc1)N1CCC2(CC1)OCCN2S(=O)(=O)c1ccc([N+](=O)[O-])cc1 [Compound C0022] | 194.3% | 13.4% | 328.7% |  |  |  |
